Assay [1] addresses Serine/threonine-protein kinase mTOR (Homo sapiens, UniProt P42345). The assay can be described thus: Inhibition of mTOR (unknown origin) measured after 45 mins by LANCE Ultra assay. (In TR-FRET formats the signal depends on donor and acceptor labels being close together.)
Assay [2] has as its target Phosphatidylinositol 4,5-bisphosphate 3-kinase catalytic subunit alpha isoform (Homo sapiens, UniProt P42336). Description: Inhibition of PI3Kalpha (unknown origin) measured after 1 hr by ADP-glo plus luminescence assay. (In general: In ADP-Glo the light output rises with the ADP produced.)

These results are taken from ChEMBL document CHEMBL4680347, “Discovery of novel 1,3,5-triazine derivatives as potent inhibitor of cervical cancer via dual inhibition of PI3K/mTOR” (Bioorg Med Chem, 2021).

Phosphatidylinositol 4,5-bisphosphate 3-kinase catalytic subunit alpha isoform, sequence (P42336 whole entry, canonical isoform): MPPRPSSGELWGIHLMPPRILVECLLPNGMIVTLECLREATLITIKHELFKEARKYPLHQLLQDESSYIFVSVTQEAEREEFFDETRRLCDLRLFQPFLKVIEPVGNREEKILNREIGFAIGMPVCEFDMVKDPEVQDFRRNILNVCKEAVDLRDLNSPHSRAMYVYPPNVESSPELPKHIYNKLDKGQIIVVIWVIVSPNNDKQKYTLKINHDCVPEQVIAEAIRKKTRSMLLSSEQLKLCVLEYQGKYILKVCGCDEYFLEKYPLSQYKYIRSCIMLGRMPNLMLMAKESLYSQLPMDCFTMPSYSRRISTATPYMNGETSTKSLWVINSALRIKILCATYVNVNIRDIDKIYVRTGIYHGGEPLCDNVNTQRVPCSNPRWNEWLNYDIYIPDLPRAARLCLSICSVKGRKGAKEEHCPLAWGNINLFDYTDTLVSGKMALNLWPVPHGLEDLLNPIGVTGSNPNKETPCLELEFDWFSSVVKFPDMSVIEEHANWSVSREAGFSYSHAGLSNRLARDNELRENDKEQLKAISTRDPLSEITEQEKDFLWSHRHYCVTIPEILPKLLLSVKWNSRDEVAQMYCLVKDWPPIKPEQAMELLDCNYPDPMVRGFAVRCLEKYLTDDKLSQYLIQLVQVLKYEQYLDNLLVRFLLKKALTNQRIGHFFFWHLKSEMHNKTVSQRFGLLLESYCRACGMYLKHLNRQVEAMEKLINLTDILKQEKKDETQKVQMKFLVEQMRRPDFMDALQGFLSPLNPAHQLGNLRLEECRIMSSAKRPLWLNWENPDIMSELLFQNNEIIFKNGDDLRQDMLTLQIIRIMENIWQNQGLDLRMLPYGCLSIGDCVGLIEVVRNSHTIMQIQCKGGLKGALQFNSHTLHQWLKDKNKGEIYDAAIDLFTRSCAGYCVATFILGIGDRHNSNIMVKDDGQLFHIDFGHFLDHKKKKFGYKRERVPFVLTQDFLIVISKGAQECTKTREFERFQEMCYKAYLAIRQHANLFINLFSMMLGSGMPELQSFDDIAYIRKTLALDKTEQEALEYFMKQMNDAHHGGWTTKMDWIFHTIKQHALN

What is called IC50 is the concentration needed to halve the response being measured. Regarding `Cc1ccc(S(=O)(=O)N2CCN(c3nc(NCCN4CCOCC4)nc(N4CCOCC4)n3)CC2)cc1`, the figures for the IC50 in assay [1] and in assay [2] were 12.8 nM and 6.03 nM, respectively.
With `O=S(=O)(c1ccccc1Cl)N1CCN(c2nc(NCCN3CCOCC3)nc(N3CCOCC3)n2)CC1`, the IC50 in assay [1] stood at 35.3 nM; in assay [2] it was 55.4 nM.
Taken in the same sequence, the figures for `COc1cccc(S(=O)(=O)N2CCN(c3nc(NCCN4CCOCC4)nc(N4CCOCC4)n3)CC2)c1` were 22.2 nM and 24.6 nM.
Turning to `O=S(=O)(c1cccc(O)c1)N1CCN(c2nc(NCCN3CCOCC3)nc(N3CCOCC3)n2)CC1`, the IC50 was found to be 21.8 nM in assay [1] and 15.6 nM in assay [2].
The corresponding values for `O=S(=O)(c1ccccc1F)N1CCN(c2nc(NCCN3CCOCC3)nc(N3CCOCC3)n2)CC1` are 98.3 nM and 123 nM.
`COc1ccccc1S(=O)(=O)N1CCN(c2nc(NCCN3CCOCC3)nc(N3CCOCC3)n2)CC1`: the IC50 was 25.5 nM in assay [1] and 39.7 nM in assay [2].
For the compound `Cc1ccccc1S(=O)(=O)N1CCN(c2nc(NCCN3CCOCC3)nc(N3CCOCC3)n2)CC1`, the IC50 is 32.3 nM in assay [1] and 32 nM in assay [2].
Taken in the same sequence, the figures for `O=S(=O)(c1ccc(Cl)cc1)N1CCN(c2nc(NCCN3CCOCC3)nc(N3CCOCC3)n2)CC1` were 28.2 nM and 30.9 nM.
Consider `O=S(=O)(c1cccc(Cl)c1)N1CCN(c2nc(NCCN3CCOCC3)nc(N3CCOCC3)n2)CC1`, for which, in assay [2], the IC50 came out at 37.5 nM.
In the case of `O=S(=O)(c1ccccc1)N1CCN(c2nc(NCCN3CCOCC3)nc(N3CCOCC3)n2)CC1`, the IC50 in assay [1] worked out at 70.4 nM; in assay [2], 40.6 nM.
Taken in the same sequence, the figures for `O=[N+]([O-])c1ccccc1S(=O)(=O)N1CCN(c2nc(NCCN3CCOCC3)nc(N3CCOCC3)n2)CC1` were 66.3 nM and 42.2 nM.
The corresponding values for `O=S(=O)(c1ccccc1O)N1CCN(c2nc(NCCN3CCOCC3)nc(N3CCOCC3)n2)CC1` are 32.5 nM and 21.3 nM.
Take `COc1ccc(S(=O)(=O)N2CCN(c3nc(NCCN4CCOCC4)nc(N4CCOCC4)n3)CC2)cc1`: the IC50 in assay [1] amounted to 20.8 nM; in assay [2], 8.9 nM.
Taken in the same sequence, the figures for `O=S(=O)(c1cccc(F)c1)N1CCN(c2nc(NCCN3CCOCC3)nc(N3CCOCC3)n2)CC1` were 93.7 nM and 110 nM.
For the compound `O=[N+]([O-])c1ccc(S(=O)(=O)N2CCN(c3nc(NCCN4CCOCC4)nc(N4CCOCC4)n3)CC2)cc1`, the IC50 in assay [1] is 41.8 nM; in assay [2], 33.6 nM.
The corresponding values for `O=[N+]([O-])c1cccc(S(=O)(=O)N2CCN(c3nc(NCCN4CCOCC4)nc(N4CCOCC4)n3)CC2)c1` are 76.8 nM and 38.9 nM.
Taken in the same sequence, the figures for `O=S(=O)(c1ccc(F)cc1)N1CCN(c2nc(NCCN3CCOCC3)nc(N3CCOCC3)n2)CC1` were 35.3 nM and 88 nM.
As to `Cc1cccc(S(=O)(=O)N2CCN(c3nc(NCCN4CCOCC4)nc(N4CCOCC4)n3)CC2)c1`, in assay [2], the IC50 was found to be 18.7 nM.
